Entries after “also recorded” stand apart in the source; their conditions may differ. Structures can show the parent of a compound that is named as a salt.
Tests used:
[1] = test system: M. tuberculosis isolate 571/573-BAL; assay: Detergent screen for induced susceptibility, BACTEC 12B growth curves; format: cell-based, Mycobacterium tuberculosis; details: for RESULT (effect on growth): 571/573-BAL, detergent approximately 17 μg/ml final, BACTEC 12B supplemented with PANTA or P/cax (ceftriaxone 8 μg/ml); for CB-18 effect in the methods of the invention: carboxybetaines tested
[2] = test system: M. tuberculosis isolates ATCC 27294 and 571/573-BAL; assay: Further studies of the range of activity of betaines; format: cell-based, Mycobacterium tuberculosis
Excerpt: FIGS. 32A and 32B show the variability when simple (i.e., unmodified) carboxybetaines with methylene (Detain PB and Velvetex OLB), ethylene (C18-carboxyethylbetaine), and propylene (CB-18) bridges were employed in this assay. This is consistent with the data of Tsubone K. et al., Jour. Pharm. Sci. 80:441–444 (1991) wherein toxicity is correlated with bridge length.
While the apparent bactericidal activity of the amine oxide was anticipated based on the use of these compounds in antimicrobial formulations (Michaels, E. B., U.S. Pat. No. 564,454 and U.S. Pat. No. 641,728), the activity of the Brij compounds and Crosultaine E-30 was surprising. […] Crosultaine E-30 has both an amidopropyl linkage and a hydroxypropyl bridge. […] Historically, the nonionic detergents have been reported to be contaminated with impurities, and only when purified stimulate growth (Dubos, R. J. et al., Jour. Exptl. Med. 83:409–423 (1946)). Impurities might explain the results with the Brij detergents and Crosultaine E-30.

[3] = test system: M. tuberculosis isolates ATCC 27294 and 571/573-BAL; assay: CB-18 vs. EDTA, BACTEC 12B growth curves; format: cell-based, Mycobacterium tuberculosis
[4] = test system: M. tuberculosis isolates ATCC 27294 and 571/573-BAL; assay: CB-18 and TMA-18 comparison, BACTEC 12B growth curves; format: cell-based, Mycobacterium tuberculosis
Method: If the mechanism of CB-18's action was similar to that of the quaternary salts (i.e., generally deleterious), then some delay would be anticipated. For example, if the CB-18 effect was a consequence of the surface active property of the detergent, then disruption of cellular function would not only have nonspecific long term consequences, but would also be independent of the isolate. In an effort to examine the similarity in the mechanism, CB-18 was assayed in parallel with trimethyloctadecylammonium bromide (TMA-18 (Aldrich, Milwaukee, Wis., Cat.# 35,924-6): made as a 100× stock in 1:1, water:isopropanol similar to that described for CB-18 in Example 1). The experimental design is outlined in FIG. 6.
In this experiment both ATCC 27294 and 571/573-BAL were cultivated on 7H11-selective media, and then serially diluted in NALC/citrate to 10,000×. The planting solution (i.e., the final dilution (50,000×)) was manufactured by diluting into either buffer, 0.5 mM CB-18, or 0.1 mM TMA-18 (all concentrations represent the final detergent concentration in the planting solution). […] The final concentration of CB-18 during incubation was approximately 17 μg/ml. The final concentration of TMA-18 during incubation was approximately 3.4 μg/ml. […] FIGS. 7A–7C show one experiment wherein ATCC 27294 cells were planted in the different solutions described above, and FIGS. 8A–8C show a parallel experiment wherein 571/573-BAL cells were planted in the same series.

[5] = test system: M. fortuitum complex isolates ATCC 6841 and 495-JHH; assay: CB-18 titration, BACTEC 12B growth curves; format: cell-based; details: M. fortuitum 495-JHH; cefoxitin (8 μg/ml in PANTA) without CB-18
[6] = test system: M. tuberculosis isolate 571/573-BAL; assay: Planting in lecithin at low inocula, BACTEC 12B growth curves; format: cell-based, Mycobacterium tuberculosis
Excerpt: In this experiment the 571/573-BAL isolate was cultivated on 7H11-selective media, serially diluted in NALC/citrate to approximately 1,000×. In an attempt to examine how the inoculum impacted the results of this assay three different stocks were manufactured, one series in buffer and one series in CB-18. […] The planting solutions were manufactured by mixing these three stocks 1:1 with either buffer or a buffered solution of lecithin (Sigma, St. Louis, Mo.; Cat.#: P 5394 (7.5% lecithin was made up as a 100× concentrate in 100% ethanol (3 grams in 40 mls) and diluted in the Tris buffer of Example 1 immediately prior to use)). The final dilutions of three different planting solutions were approximately 5000×, 25,000×, and 100,000×. The final concentration of CB-18 and lecithin in the appropriate planting solutions was approximately 0.5 mM. […] The final concentration of both lecithin and CB-18 during incubation was approximately 17 μg/ml.
Aliquots of the three stocks (i.e., 2,500×, 12,500× and 50,000×) were also taken for quantitative culture by plating on 7H10 plates (Becton Dickinson, Cockeysville, Md.). […] FIG. 5A presents the 5,000× series planted in either buffer or buffer containing lecithin, and FIG. 5B presents the 5,000× series planted in CB-18 or CB-18 combined with lecithin. FIG. 5C presents the 25,000× series planted in either buffer or buffer containing lecithin, and FIG. 5D presents the 25,000× series planted in CB-18 or CB-18 combined with lecithin. FIG. 5E presents the 100,000× series planted in either buffer or buffer containing lecithin, and FIG. 5F presents the 100,000× series planted in CB-18 or CB-18 combined with lecithin.

Molecule	RESULT (effect on growth) [1]	other results
CCCCCCCCCCCCCCCCCC[N+](C)(C)Cc1ccccc1.[Cl-] [Benzyldimethyl-stearyl ammonium chloride, benzyldimethyl-stearyl ammonium chloride, reference compound]	Complete suppression of growth	–
CCCCCCCCCCCCCCCC[N+](C)(C)CC(O)CS(=O)(=O)[O-] (stereo not shown) [C16-hydroxypropyl-sulfobetaine]	Slight delay in growth	–
CCCCCCCCCCCCCCCCCC[N+](C)(C)CCC(=O)[O-] [C18-carboxyethylbetaine, N-(2-carboxyethyl)-N,N-dimethyl-1-octadecanaminium, inner salt]	strong ability to suppress growth when combined with antibiotics; also recorded: Complete suppression of growth	CB-18 effect in the methods of the invention [1]: show the CB-18 effect; range of activity ([2]; ATCC 27294): 7 to 13 µg/mL
CCCCCCCCCCCCCCCCCC[N+](C)(C)CCCCS(=O)(=O)[O-] [C18-sulfobutylbetaine]	Slight delay in growth	–
C[C@H](CCC(=O)NCCC[N+](C)(C)CCCS(=O)(=O)[O-])[C@H]1CC[C@H]2[C@@H]3[C@H](O)C[C@@H]4C[C@H](O)CC[C@]4(C)[C@H]3C[C@H](O)[C@]12C [CHAPS, reference compound]	No effect	–
CCCCCCCCCCCCCCCC[N+](C)(C)CC(=O)[O-] [DeTaine PB, cetyl-carboxymethylbetaine]	Strong suppression of growth	CB-18 effect in the methods of the invention [1]: show the CB-18 effect
C[C@H](CCC(=O)O)[C@H]1CC[C@H]2[C@@H]3CC[C@@H]4C[C@H](O)CC[C@]4(C)[C@H]3C[C@H](O)[C@]12C [Deoxycholic acid, deoxycholic acid, reference compound]	No effect	–
O=C(O)CN(CCN(CC(=O)O)CC(=O)O)CC(=O)O [EDTA]	–	effect on growth characteristics ([3]; ATCC 27294 and 571/573-BAL, EDTA approximately 17 μg/ml, R.F. or P/cax): no effect
[Cl-].[Cl-].[Mg+2] [MgCl2, reference compound]	–	effect on growth character in the presence of CB-18 ([3]; 571/573-BAL, five-fold molar excess of MgCl2 (85 μg/ml) added to CB-18 17 μg/ml, R.F.): no improvement; effect on the detrimental effects of the CB-18/P-cax combination ([3]; MgCl2 85 μg/ml added to CB-18 17 μg/ml with P-cax, both isolates, especially 571/573-BAL): alleviate, to some degree
CCCCCCCCCCCCCCCC(=O)O [Palmitic acid, palmitic acid, reference compound]	No effect	–
CCCCCCCCCCCCCCCCCC[N+](C)(C)CCCS(=O)(=O)[O-] [SB-18, N-octadecyl-N,N-dimethyl-3-ammonio-1-propane-sulfonate]	significant activity; also recorded: Modest suppression	range of activity ([2]; 571/573-BAL): 20 to 75 µg/mL
CCCCCCCCCCCCCCCCCC(=O)O [Stearic acid, stearic acid, reference compound]	No effect	–
CCCCCCCCCCCCCCCCCC[N+](C)(C)C.[Br-] [TMA-18, trimethyloctadecylammonium bromide, reference compound]	Complete suppression of growth	effect on growth ([4]; 571/573-BAL, 3.4 μg/ml TMA-18, R.F., PANTA or P/cax): significant delays were observed in all bottles; effect on growth ([4]; ATCC 27294, 3.4 μg/ml TMA-18, R.F., PANTA or P/cax): significant delays in all bottles; effect on growth ([4]; ATCC 27294 and 571/573-BAL, TMA-18 3.4 μg/ml (FIGS. 7C and 8C)): bacteriostatic in isolation; also recorded: inhibitory at low concentrations
CCCCCCCCCCCCCC[N+](C)(C)Cc1ccccc1.[Cl-] [benzyldimethyl-tetradecyl ammonium chloride, reference compound]	Complete suppression of growth	–
CO[C@@]1(NC(=O)Cc2cccs2)C(=O)N2C(C(=O)O)=C(COC(N)=O)CS[C@@H]21 [cefoxitin, reference compound]	–	effect on growth [5]: unaffected
C16-amidopropyl-sulfatobetaine	No effect	–
cetyl-(poyoxyethylene)10 [Brij 56, reference compound]	significantly suppress growth; also recorded: Very strong suppression of growth	–
erucamidopropyl hydroxypropyl sulfobetaine [Crosultaine E-30]	Strong suppression of growth	RESULT (effect on growth) ([1]; listed as Crosultaine E30): significantly suppress growth
oleyl-(poyoxyethylene)10 [Brij 97, reference compound]	significantly suppress growth; also recorded: Very strong suppression of growth	–
oleyl-carboxymethylbetaine [Velvetex OLB-50]	Very strong suppression of growth	CB-18 effect in the methods of the invention [1]: show the CB-18 effect
phosphatidylcholine [lecithin]	–	ability to overcome the detrimental effect of CB-18 ([6]; lecithin and CB-18 approximately 17 μg/ml each, CB-18 alone and in combination with antibiotics): able to overcome the detrimental effect of CB-18; ability to overcome the deleterious effect of the antibiotic formulation (P/caz) ([6]; lecithin approximately 17 μg/ml, absence of CB-18): ability to overcome, to some degree; impact on the sensitivity of the BACTEC 12B assay ([6]; lecithin approximately 17 μg/ml, no CB-18): little if any impact
stearylamidopropyl-carboxybetaine [Schercotaine IAB]	No effect	–

From patent US7067500B2, “Betaines as adjuvants to susceptibility testing and antimicrobial therapy” (priority 1997, dated 2006)
